Key:
amputation wound = test: Example 4: treatment of an amputation wound; format: in vivo, human; details: 750 mg×3, prescribed May 24, 2012, before the test treatments
Protocol: If nothing else is mentioned herein below, the treatment preparation used in the examples below was prepared just before application by mixing one volume of a component containing aqueous NaOCl in an amount of 1-2% (by weight) with one volume of a component containing amino acids lys+Glu+Leu (1:1:1 relation and 0.7-0.8% total amino content by weight), TiO2 (0.04% by weight), NaCl (0.3-0.6% by weight), Na-CMC (medium viscosity; 3% by weight), and NaOH (added to adjust the pH to be 9.5-10.5 by weight). Medium viscosity of carboxymethyl cellulose is defined as 400-800 (mPas).
The components were mixed and the resulting mixture, i.e. the treatment preparation, was applied immediately (within seconds at the most one minute) to the treatment site, e.g. an ulcer. In this way there was provided that the mentioned chemical reaction forming halogenated amino acids occurs in contact with the treatment site. The resulting chemical reaction was allowed to proceed so as to separate dead tissue from healthy tissue as well as decomposing and/or destroying bacteria. The mixture in the form a solution was left within the treatment area, e.g. ulcer, for 5 minutes or less, wherein the reaction proceeds such that bubbles and a smell of chlorine appear and then disappear in the preparation. […]

Staphylococcus = test: Example 2: bacterial cultivation, resistance; format: cell-based; details: bacterial cultivation from the leg ulcer

Structure (SMILES) | effect of antibiotic on non-healing amputation wound (amputation wound) | resistance of cultivated Staphylococcus (Staphylococcus)
Cc1onc(-c2c(F)cccc2Cl)c1C(=O)N[C@@H]1C(=O)N2[C@@H]1SC(C)(C)[C@@H]2C(=O)O [Heracillin®] | did not improve their condition | –
CC1(C)S[C@@H]2[C@H](NC(=O)COc3ccccc3)C(=O)N2[C@H]1C(=O)O [fenoximetylpenicillin] | – | resistant
Cc1onc(-c2c(F)cccc2Cl)c1C(=O)N[C@@H]1C(=O)N2[C@@H]1SC(C)(C)[C@@H]2C(=O)O [flukloxacillin] | – | resistant
